Laboratory results as given in PMC12036875, “Mitochondria-targeting natural product rhein conjugated with dichloroacetate as the dual inhibitor of glycolysis and oxidative phosphorylation to off energize cancer cells and induce ROS storm” (Theranostics, 2025).

Tests used:
[1] = Stability in 2.5% DMSO-PBS by UV-Vis absorption; format: physicochemical; conditions: room temperature, 0-12 h
Procedure: Stability of drugs is vital indexes for anticancer application. The stability of Rhein-DCA conjugate in vitro was performed by dispersing it in 2.5% dimethyl sulfoxide (DMSO)-PBS at room temperature for 0, 2, 6 and 12 h. […] Furthermore, we also quantitatively analyzed the intracellular stability of Rhein-DCA using high-performance liquid chromatography (HPLC). After 4 h of uptake, the intracellular concentration of Rhein-DCA was 0.095 μg/10^6 cells within 4T1 cells.
UV-Vis spectra were used to investigate the stability of Rhein-DCA conjugate. The Rhein-DCA was dispersed in 2.5% DMSO-PBS at room temperature, and the absorption spectrum was monitored at 0, 2, 6 and 12 h. High performance liquid chromatography (HPLC) was used to investigate the intracellular stability of Rhein-DCA conjugate. 4T1 cells were seeded in cell culture dish (diameter of 10 cm) at a density of 2 × 10^6 cells per dish and cultured in the incubator for 24 h. Then the cells were further treated with Rhein-DCA conjugate at a concentration of 11 μg/mL for 4 h. After removing media and washing the cells three times with PBS to remove the residual Rhein-DCA, the cells were incubated for another 2 h. […] A C18 column was used with methanol / 0.1% H₃PO₄ (83:17) as the mobile phase, flow rate 1.0 mL/min, fluorescence detector with an excitation wavelength of 443 nm and an emission wavelength of 530 nm.

[2] = system: mitochondria of 4T1 cells; assay: Cell uptake and organelle localization (CLSM); format: cell-based, Mouse; conditions: 24 h
Excerpt: In order to evaluate the positive effect of the conjugation of rhein and DCA on anti-cancer aspect, cellular uptake of Rhein-DCA conjugate in 4T1 cells was first examined by confocal laser scanning microscope (CLSM). Based on the fluorescence properties of Rhein-DCA conjugate, green fluorescence signal indicated its distribution within the cells. […] The green fluorescence of rhein was highly overlapped with the red fluorescence of mitochondria (Mito tracker red) and merged into yellow fluorescence in rhein and Rhein-DCA groups.
4T1 cells were seeded in confocal dishes at a density of 10 × 10^4 cells per dish and cultured in the incubator for 24 h. And the cells were further treated with Rhein-DCA conjugate at a concentration of 6.25 μM for 0, 2, 6, 12 or 24 h, respectively. Thereafter, the cells were washed twice with PBS and stained with Hoechst 33342 (10 μg/mL) for 15 min in the dark at room temperature, followed by another two washes with PBS. Finally, the fluorescence intensity of cells was monitored with confocal microscope with excitation wavelengths (Ex) of 488 nm, emission wavelengths (Em) of 525 ± 25 nm, and Ex of 405 nm, Em of 447 ± 30 nm, respectively. […]

[3] = system: 4T1 cells; assay: Intracellular and extracellular lactate determination; format: cell-based, Mouse; conditions: 6.25 μM, 24 h
Procedure: Next, the end product of glycolysis, lactate, was analyzed in 4T1 cells to further confirm the efficacy of the Rhein-DCA conjugate in blocking glycolytic metabolism. […] Lactate will be released from cells and condense in the TME due to the sustained aerobic glycolysis. To determine whether the decline in intracellular lactate level was caused by an increased extracellular secretion or a disconnect in glycolysis pathway, we further detected the lactate content in the culture medium (Figure 2E). The changes in extracellular lactate level were consistent with those observed intracellularly across the tested groups.
4T1 cells were seeded into 6-well plates at a density of 10 × 10^4 cells per well and cultured for 24 h. Cells were exposed to PBS, rhein, DCA, R + D and Rhein-DCA conjugate at a concentration of 6.25 μM for 24 h. (1) Medium: The medium from different groups was subjected to centrifugation at 9391 G for 10 min, 100 μL of supernatant was obtained, and 1 mL of extraction solution I was added. (2) Cells: After being washed twice with PBS, cells were harvested and suspended in extraction solution I (1 mL) for further lysis with sonication in ice bath (power 300 W, the duration of sonication is 3 s, the interval duration of 7 s, total sonication time of 3 min). […] Finally, the absorption value of each sample was detected with microplate reader at 570 nm.

[4] = system: mPTP in 4T1 cells; assay: Mitochondrial permeability transition pore opening assay (Calcein AM); format: cell-based, Mouse; conditions: 6.25 μM, 24 h
Excerpt: On the other hand, rhein could also disturb mitochondria, the camp of OXPHOS, to further prevent cancer cells from obtaining ATP by inducing pathological opening of mPTP [30]. We first detected mPTP on 4T1 cancer cells treated with indicated drugs according to the mPTP assay kit. The green fluorescence of Calcein AM in mitochondria would vanish when the quencher entered mitochondria through the opened mPTP channel. […] The sustained opening of mPTP along with the loss of Δψm. Thus, we further examined the Δψm of 4T1 cancer cells with JC-1 fluorescence dyes and tetramethylrhodamine, ethyl ester (TMRE) probe. The JC-1 dyes underwent a transition from aggregated red fluorescence to monomeric green fluorescence with mitochondrial depolarization in cells, and the increase of green/red fluorescence intensity ratio of JC-1 dyes indicated mitochondrial depolarization.
The opening status of the mPTP in 4T1 cells were tested with fluorescent probe Calcein AM. Briefly, 4T1 cells were seeded into 6-wells plates at a density of 10 × 10^4 cells per well and treated with various drugs at 6.25 μM for 24 h. After being washed twice with PBS, the cells were stained with Calcein AM staining solution (1 ×) and CoCl2 fluorescence quenching solution (1 ×) for 45 min at 37 °C in the dark. Next, they were further cultured with fresh medium at 37 °C for another 30 min in the dark. […]

For `O=C(OCCOC(=O)C(Cl)Cl)c1cc(O)c2c(c1)C(=O)c1cccc(O)c1C2=O` [Rhein-DCA], the “stability (UV-Vis absorption spectra)” value [1] was “relatively stable”, the “co-localization with lysosomes (Lyso tracker red) and endoplasmic reticulum (ER tracker red)” value [2] was “almost did not co-localize” and the intracellular lactate content [3] was “noticeable descent”. The “mPTP opening (Calcein AM green fluorescence)” value [4] was “faintest green fluorescence”.
